How the values were obtained:
PDE7B = PDE7B (Homo sapiens (Human), UniProt Q9NP56); test: PDE7B assay: inhibition of PDE7B hydrolysis of [3H]cAMP to [3H]AMP (scintillation proximity, yttrium silicate beads); type: biochemical; settings: 16 nM [3H]cAMP, 30° C., 20 minutes; read-out: PDE 7B IC50
Experimental: (§1) PDE7A and PDE7B Assay. Compounds were tested for their activity by measuring the inhibition of PDE7A or PDE7B hydrolysis of [3H]cAMP to [3H]AMP. Generally, eight dilutions of compound were assayed in 50 mM Tris-HCl pH 7.5, 8.3 mM MgCl2, 0.5 mg/mL BSA, 1.7 mM EGTA, 16 nM [3H]cAMP, and 1% DMSO. PDE7A or PDE7B (typically 1-5 ng/mL) (BPS BioSciences, CA) is added to initiate the reaction. The reaction was incubated at 30° C. for 20 minutes. PDE7A and PDE7B hydrolysis was terminated by the addition of yttrium silicate beads (GE Healthcare, RPNQ0150) and counted on a Wallac Microbeta scintillation counter, 1-2 hours following the addition of the beads. Data was analyzed using XLfit […] from which ICso values were obtained.

PDE7A = PDE7A (Homo sapiens (Human), UniProt Q13946); test: PDE7A assay: inhibition of PDE7A hydrolysis of [3H]cAMP to [3H]AMP (scintillation proximity, yttrium silicate beads); type: biochemical; settings: 16 nM [3H]cAMP, 30° C., 20 minutes; read-out: PDE 7A IC50
Experimental: as §1

Chain of PDE7B (Q9NP56 whole entry): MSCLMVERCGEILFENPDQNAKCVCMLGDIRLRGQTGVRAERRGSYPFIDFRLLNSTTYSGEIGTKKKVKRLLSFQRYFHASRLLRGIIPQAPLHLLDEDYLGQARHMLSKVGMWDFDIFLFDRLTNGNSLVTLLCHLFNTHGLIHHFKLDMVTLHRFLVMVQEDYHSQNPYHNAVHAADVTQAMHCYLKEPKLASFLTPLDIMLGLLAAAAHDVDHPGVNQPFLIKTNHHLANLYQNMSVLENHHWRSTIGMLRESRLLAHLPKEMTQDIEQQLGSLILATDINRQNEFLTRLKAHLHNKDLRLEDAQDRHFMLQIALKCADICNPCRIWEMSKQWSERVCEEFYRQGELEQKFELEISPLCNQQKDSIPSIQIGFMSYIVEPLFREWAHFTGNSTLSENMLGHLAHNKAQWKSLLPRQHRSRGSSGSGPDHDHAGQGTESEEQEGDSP
Chain of PDE7A (Q13946 whole entry): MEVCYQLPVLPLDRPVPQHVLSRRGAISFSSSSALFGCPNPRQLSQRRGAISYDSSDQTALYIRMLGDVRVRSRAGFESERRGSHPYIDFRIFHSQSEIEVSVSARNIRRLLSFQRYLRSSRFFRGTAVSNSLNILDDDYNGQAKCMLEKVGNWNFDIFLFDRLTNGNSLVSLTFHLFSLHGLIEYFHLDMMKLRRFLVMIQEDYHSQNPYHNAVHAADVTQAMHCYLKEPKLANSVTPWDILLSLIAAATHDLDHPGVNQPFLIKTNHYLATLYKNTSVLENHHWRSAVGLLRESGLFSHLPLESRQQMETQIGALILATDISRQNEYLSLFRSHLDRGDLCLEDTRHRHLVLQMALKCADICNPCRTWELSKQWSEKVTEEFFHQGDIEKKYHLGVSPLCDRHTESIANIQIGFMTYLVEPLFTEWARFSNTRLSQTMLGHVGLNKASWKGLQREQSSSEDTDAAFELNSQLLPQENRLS

| Structure (SMILES) | IC50 (PDE7B) | IC50 (PDE7A) |
| --- | --- | --- |
| Cc1nn(-c2ccccc2Cl)c2sc(C(=O)N[C@H]3CC[C@H](N4CCOCC4)CC3)cc12 [Compound I-2, 1-(2-chlorophenyl)-3-methyl-N-((1r,4r)-4-morpholinocyclohex-yl)-1H-thieno[2,3-c] pyrazole-5-carbox-amide] | 10 to 30 nM | 10 to 30 nM |
| Cc1nn(C2CCC(F)(F)CC2)c2sc(C(=O)N[C@H]3CC[C@H](N4CCN(CC(F)F)CC4)CC3)cc12 [II-11, 1-(4,4-difluorocyclo-hexyl)-N-((1r,4r)-4-(4-(2,2-difluoroeth-yl)piperazin-1-yl)-cyclohexyl)-3-meth-yl-1H-thieno[2,3-c] pyrazole-5-carbox-amide] | 10 to 30 nM | 10 to 30 nM |
| Cc1nn(-c2ccccc2Cl)c2sc(C(=O)N[C@H]3C[C@H](N4CCOCC4)C3)cc12 [Compound I-3, 1-(2-chlorophenyl)-3-methyl-N-((1r,3r)-3-morpholinocyclobut-yl)-1H-thieno[2,3-c] pyrazole-5-carbox-amide] | 30 to 100 nM | 10 to 30 nM |
| Cc1nn(CC(C)(C)C)c2sc(C(=O)Nc3cnc(N4CCOCC4)c(Cl)c3)cc12 [II-38, N-(5-chloro-6-morpholinopyridin-3-yl)-3-methyl-1-neopentyl-1H-thieno [2,3-c]pyrazole-5-carboxamide] | 500 to 2500 nM | 100 to 500 nM |
| Cc1nn(C2CCC(F)(F)CC2)c2sc(C(=O)N[C@H]3C[C@H](N4CCOCC4)C3)cc12 [II-18, 1-(4,4-difluorocyclo-hexyl)-3-methyl-N-((1r,3r)-3-morpho-linocyclobutyl)-1H-thieno[2,3-c]pyrazole-5-carboxamide] | 10 to 30 nM | 10 to 30 nM |
| Cc1nn(C2C[C@@H](C)O[C@@H](C)C2)c2sc(C(=O)N[C@H]3CC[C@H](N4CCN(C(C)C)CC4)CC3)cc12 (stereo partly shown) [II-1, 1-((2r,6s)-2,6-dimeth-yltetrahydro-2H-pyr-an-4-yl)-N-((1r,4r)-4-(4-isopropylpiperazin-1-yl)cyclohexyl)-3-methyl-1H-thieno [2,3-c]pyrazole-5-carboxamide] | 500 to 2500 nM | 100 to 500 nM |
| CC(=O)N1CCN([C@H]2CC[C@H](NC(=O)c3cc4c(C)nn(-c5ccccc5Cl)c4s3)CC2)CC1 [Compound I-4, N-((1r,4r)-4-(4-acetyl-piperazin-1-yl)cyclo-hexyl)-1-(2-chloro-phenyl)-3-methyl-1H-thieno[2,3-c]pyrazole-5-carboxamide] | < 10 nM | < 10 nM |
| Cc1nn(-c2ccccn2)c2sc(C(=O)N[C@H]3CC[C@H](N4CCOCC4)CC3)cc12 [Compound I-1, 3-methyl-N-((1r,4r)-4-morpholinocyclohex-yl)-1-(pyridin-2-yl)-1H-thieno[2,3-c]pyr-azole-5-carboxamide] | 100 to 500 nM | 100 to 500 nM |
| Cc1nn(CC(C)C)c2sc(C(=O)N[C@H]3CC[C@H](N4CC(C#N)C4)CC3)cc12 [II-43, N-((1r,4r)-4-(3-cyanoazetidin-1-yl)-cyclohexyl)-1-iso-butyl-3-methyl-1H-thieno[2,3-c]pyrazole-5-carboxamide] | 10 to 30 nM | 10 to 30 nM |
| Cc1nn(C2CCC(F)(F)CC2)c2sc(C(=O)N[C@H]3C[C@H](N4CCC(F)(F)C4)C3)cc12 [II-3, 1-(4,4-difluorocyclo-hexyl)-N-(3-(3,3-difluoropyrrolidin-1-yl)cyclobutyl)-3-methyl-1H-thieno [2,3-c]pyrazole-5-carboxamide] | 10 to 30 nM | 10 to 30 nM |
| Cc1nn(CC(C)C)c2sc(C(=O)N[C@H]3CC[C@H](N4CC(OC(F)F)C4)CC3)cc12 [II-44, N-((1r,4r)-4-(3-(difluoromethoxy)-azetidin-1-yl)cyclo-hexyl)-1-isobutyl-3-methyl-1H-thieno [2,3-c]pyrazole-5-carboxamide] | 100 to 500 nM | 30 to 100 nM |
| CC(=O)N1CCN([C@H]2C[C@H](NC(=O)c3cc4c(C)nn(C5CCC(F)(F)CC5)c4s3)C2)CC1 [II-29, N-((1r,3r)-3-(4-acet-ylpiperazin-1-yl)-cyclobutyl)-1-(4,4-difluorocyclohexyl)-3-methyl-1H-thieno [2,3-c]pyrazole-5-carboxamide] | 10 to 30 nM | 10 to 30 nM |
| Cc1nn(CC2CCC2)c2sc(C(=O)N[C@H]3CC[C@H](N4CC(F)(F)C4)CC3)cc12 [II-22, 1-(cyclobutylmethyl)-N-((1r,4r)-4-(3,3-difluoroazetidin-1-yl)cyclohexyl)-3-methyl-1H-thieno [2,3-c]pyrazole-5-carboxamide] | 30 to 100 nM | 30 to 100 nM |
| Cc1nn(C2CCC(F)(F)CC2)c2sc(C(=O)N[C@H]3C[C@H](N4CCN(C5CC5)CC4)C3)cc12 [II-33, N-((1r,3r)-3-(4-cyclo-propylpiperazin-1-yl)cyclobutyl)-1-(4,4-difluorocyclohexyl)-3-methyl-1H-thieno [2,3-c]pyrazole-5-carboxamide] | 10 to 30 nM | 10 to 30 nM |
| Cc1nn(CC(C)C)c2sc(C(=O)N[C@H]3CC[C@H](N4CC(F)(F)C4)CC3)cc12 [II-4, N-((1r,4r)-4-(3,3-difluoroazetidin-1-yl)-cyclohexyl)-1-isobut-yl-3-methyl-1H-thieno [2,3-c]pyrazole-5-carboxamide] | 30 to 100 nM | 10 to 30 nM |
| Cc1nn(C2CCC(F)(F)CC2)c2sc(C(=O)N[C@H]3CC[C@H](N4CCOCC4)CC3)cc12 [II-13, 1-(4,4-difluorocyclo-hexyl)-3-methyl-N-((1r,4r)-4-morpho-linocyclohexyl)-1H-thieno[2,3-c]pyrazole-5-carboxamide] | 10 to 30 nM | 10 to 30 nM |
| Cc1nn(-c2ccccc2Cl)c2sc(C(=O)N[C@H]3C[C@H](N4CCN(C5CC5)CC4)C3)cc12 [Compound I-6, 1-(2-chlorophenyl)-N-((1r,3r)-3-(4-cyclo-propylpiperazin-1-yl)-cyclobutyl)-3-methyl-1H-thieno[2,3-c]pyr-azole-5-carboxamide] | 30 to 100 nM | 30 to 100 nM |

Further lines, results first:

| IC50 (PDE7B) | IC50 (PDE7A) | Structure (SMILES) |
| --- | --- | --- |
| 30 to 100 nM | 10 to 30 nM | Cc1nn(CC(C)(C)C)c2sc(C(=O)N[C@H]3C[C@H](N4CCOCC4)C3)cc12 [II-25, 3-methyl-N-((1r,3r)-3-morpholinocyclo-butyl)-1-neopentyl-1H-thieno[2,3-c]pyr-azole-5-carboxamide] |
| 30 to 100 nM | 10 to 30 nM | Cc1nn(CC2CCC2)c2sc(C(=O)N[C@H]3CC[C@H](N4CCN(CC(F)(F)F)CC4)CC3)cc12 [II-21, 1-(cyclobutylmethyl)-3-methyl-N-((1r,4r)-4-(4-(2,2,2-trifluoro-ethyl)piperazin-1-yl)-cyclohexyl)-1H-thieno[2,3-c]pyrazole-5-carboxamide] |
| 30 to 100 nM | 30 to 100 nM | Cc1nn(CC(C)C)c2sc(C(=O)N[C@H]3CC[C@H](N4CCOCC4)CC3)cc12 [II-14] |
| < 10 nM | < 10 nM | Cc1nn(CC(C)(C)C)c2sc(C(=O)N[C@H]3CC[C@H](N4CC(OC(F)F)C4)CC3)cc12 [II-42, N-((1r,4r)-4-(3-(difluoromethoxy)-azetidin-1-yl)cyclo-hexyl)-3-methyl-1-neopentyl-1H-thieno [2,3-c]pyrazole-5-carboxamide] |
| 30 to 100 nM | 10 to 30 nM | Cc1nn(CC(C)(C)C)c2sc(C(=O)N[C@H]3C[C@H](N4CCN(C5CC5)CC4)C3)cc12 [II-34, N-((1r,3r)-3-(4-cyclo-propylpiperazin-1-yl)cyclobutyl)-3-methyl-1-neopentyl-1H-thieno[2,3-c] pyrazole-5-carbox-amide] |
| 100 to 500 nM | 30 to 100 nM | Cc1nn(CC2CCC2)c2sc(C(=O)N[C@H]3CC[C@H](N4CCN(C5CC5)CC4)CC3)cc12 [II-20, 1-(cyclobutylmethyl)-N-((1r,4r)-4-(4-cyclopropylpiperazin-1-yl)cyclohexyl)-3-methyl-1H-thieno [2,3-c]pyrazole-5-carboxamide] |
| < 10 nM | < 10 nM | Cc1nn(CC(C)(C)C)c2sc(C(=O)N[C@H]3CC[C@H](N4CCC(F)(F)C4)CC3)cc12 [II-27, N-((1r,4r)-4-(3,3-difluoropyrrolidin-1-yl)cyclohexyl)-3-methyl-1-neopentyl-1H-thieno[2,3-c]pyr-azole-5-carboxamide] |
| 30 to 100 nM | 10 to 30 nM | CC(=O)N1CCN([C@H]2CC[C@H](NC(=O)c3cc4c(C)nn(CC(C)C)c4s3)CC2)CC1 [II-16, N-((1r,4r)-4-(4-acet-ylpiperazin-1-yl)-cyclohexyl)-1-iso-butyl-3-methyl-1H thieno[2,3-c]pyrazole-5-carboxamide] |
| < 10 nM | < 10 nM | Cc1nn(CC(C)(C)C)c2sc(C(=O)N[C@H]3CC[C@H](N4CCN(C5CC5)CC4)CC3)cc12 [II-24, N-((1r,4r)-4-(4-cyclo-propylpiperazin-1-yl)-cyclohexyl)-3-meth-yl-1-neopentyl-1H-thieno[2,3-c]pyrazole-5-carboxamide] |

Source: US20250066383A1, “PDE 7 MODULATOR COMPOUNDS” (Omeros Corporation, priority 2023, published 2025)
